From PubChem BioAssay (NCI)
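Step 1: Grow cells in 96-well plates. Step 2: Expose to compound for 48 hours at 5 concentrations. Step 3: Interpolate endpoints linearly; if unreached, use highest concentration. GI50 is the concentration that inhibits growth by half. TGI: total growth inhibition.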

Assays:
Assay in all cases: NCI tumour cell line growth inhibition, 48 h
CAKI-1 renal = test system: CAKI-1 renal
COLO 205 colon = test system: COLO 205 colon
HT29 colon = test system: HT29 colon
A549 NSCLC = test system: A549 NSCLC
UACC-257 melanoma = test system: UACC-257 melanoma
HCT-15 colon = test system: HCT-15 colon
K-562 leukemia = test system: K-562 leukemia
PC-3 prostate = test system: PC-3 prostate
SK-MEL-5 melanoma = test system: SK-MEL-5 melanoma
HCT-116 colon = test system: HCT-116 colon

Compound CCCN=C1Nc2ccccc2[C@@H]2N(C)c3ccccc3C(C)C[C@]12C (stereo not given in full) has a TGI (CAKI-1 renal) of 84.5 µM, a TGI (COLO 205 colon) of 38 µM and a TGI (HT29 colon) of 27.8 µM. For the same compound, the TGI (A549 NSCLC) was > 100 µM, the TGI (UACC-257 melanoma) was 25.6 µM and the TGI (HCT-15 colon) was 56.4 µM. The TGI (K-562 leukemia) was > 100 µM, the TGI (PC-3 prostate) was 40.8 µM and the TGI (SK-MEL-5 melanoma) was 29.2 µM. The TGI (HCT-116 colon) was 30.4 µM.
CC(C)=CCC/C(=C\CC/C(=C\CCc1ccoc1)C(=O)O)C(=O)O was tested, and the TGI (CAKI-1 renal) was > 100 µM, the TGI (COLO 205 colon) was > 100 µM and the TGI (HT29 colon) was > 100 µM. For the same compound, the TGI (A549 NSCLC) was > 100 µM, the TGI (UACC-257 melanoma) was > 100 µM and the TGI (HCT-15 colon) was > 100 µM. The TGI (K-562 leukemia) was > 100 µM, the TGI (PC-3 prostate) was > 100 µM and the TGI (SK-MEL-5 melanoma) was > 100 µM. For the same compound, the TGI (HCT-116 colon) was > 100 µM.
Work on Cc1c(C#N)c2nnn(-c3ccc([N+](=O)[O-])cc3)c(=O)n2c1-c1ccccc1 yielded a TGI (CAKI-1 renal) of 52.2 µM, a TGI (COLO 205 colon) of 22.9 µM and a TGI (HT29 colon) of 23.7 µM. For the same compound, the TGI (A549 NSCLC) was > 100 µM, the TGI (UACC-257 melanoma) was 47.6 µM and the TGI (HCT-15 colon) was 24.4 µM. It also gave a TGI (K-562 leukemia) of 30.6 µM, a TGI (PC-3 prostate) of 14.7 µM and a TGI (SK-MEL-5 melanoma) of 25.2 µM. The TGI (HCT-116 colon) was 19 µM.
In the case of Cc1ccc(S(=O)(=O)N(CC(O)c2ccccc2)c2ccccc2F)cc1 (stereo not given), the TGI (CAKI-1 renal) is reported as 33.7 µM, the TGI (COLO 205 colon) is reported as 28.8 µM and the TGI (HT29 colon) is reported as 34.4 µM. For the same compound, the TGI (A549 NSCLC) was 41.4 µM, the TGI (UACC-257 melanoma) was 16.1 µM and the TGI (HCT-15 colon) was 33 µM. For the same compound, the TGI (K-562 leukemia) was 44.5 µM, the TGI (PC-3 prostate) was 32.2 µM and the TGI (SK-MEL-5 melanoma) was 29.6 µM. The TGI (HCT-116 colon) was 26.4 µM.
Compound COc1ccc2c(c1)c(=O)c1c(NCCCN(C)CCCNc3ccc4c(=O)n(CCN(C)C)c(=O)n5c6ccc(OC)cc6c(=O)c3c45)ccc3c(=O)n(CCN(C)C)c(=O)n2c31 has a TGI (CAKI-1 renal) of 0.784 µM, a TGI (COLO 205 colon) of 0.803 µM and a TGI (HT29 colon) of 1.28 µM. For the same compound, the TGI (A549 NSCLC) was 1.26 µM, the TGI (UACC-257 melanoma) was 2.11 µM and the TGI (HCT-15 colon) was 0.617 µM. The TGI (K-562 leukemia) was 1.11 µM, the TGI (PC-3 prostate) was 0.858 µM and the TGI (SK-MEL-5 melanoma) was 0.813 µM. It also gave a TGI (HCT-116 colon) of 1.13 µM.
O=C(Nc1ccc(-n2cc(-c3ccncc3)c(-c3ccc(O)c(Cl)c3)n2)cc1)c1cc(Cl)cc(Cl)c1 was tested, and the GI50 (CAKI-1 renal) was 2.64 µM, the TGI (CAKI-1 renal) was 28 µM and the GI50 (COLO 205 colon) was > 32.5 µM. For the same compound, the TGI (COLO 205 colon) was > 32.5 µM, the GI50 (HT29 colon) was 1.01 µM and the TGI (HT29 colon) was 5.11 µM. The GI50 (A549 NSCLC) was 2.86 µM, the TGI (A549 NSCLC) was > 32.5 µM and the GI50 (UACC-257 melanoma) was 13.8 µM. The TGI (UACC-257 melanoma) was > 32.5 µM, the GI50 (HCT-15 colon) was 0.908 µM and the TGI (HCT-15 colon) was > 32.5 µM. The GI50 (K-562 leukemia) was 1.02 µM, the TGI (K-562 leukemia) was > 32.5 µM and the GI50 (PC-3 prostate) was 1.96 µM. The TGI (PC-3 prostate) was > 32.5 µM, the GI50 (SK-MEL-5 melanoma) was 0.877 µM and the TGI (SK-MEL-5 melanoma) was 6.85 µM. For the same compound, the GI50 (HCT-116 colon) was 1.57 µM and the TGI (HCT-116 colon) was > 32.5 µM.
With COc1cc(CCNC2=CC(=O)c3cccnc3C2=O)ccc1O the TGI (CAKI-1 renal) was 5.04 µM, the TGI (COLO 205 colon) was 3 µM and the TGI (HT29 colon) was 4.38 µM. It also gave a TGI (A549 NSCLC) of 3.27 µM, a TGI (UACC-257 melanoma) of 2.18 µM and a TGI (HCT-15 colon) of 2.58 µM. It also gave a TGI (K-562 leukemia) of 2.15 µM, a TGI (PC-3 prostate) of 18.7 µM and a TGI (SK-MEL-5 melanoma) of 1.08 µM. The TGI (HCT-116 colon) was 4.8 µM.
For [N-]=[N+]=C(C(=O)OCC#CCOC(=O)C(=[N+]=[N-])S(=O)(=O)c1ccccc1)S(=O)(=O)c1ccccc1, the TGI (CAKI-1 renal) was > 10 µM, the TGI (COLO 205 colon) was > 10 µM and the TGI (HT29 colon) was > 10 µM. The TGI (A549 NSCLC) was > 10 µM, the TGI (UACC-257 melanoma) was > 10 µM and the TGI (HCT-15 colon) was > 10 µM. For the same compound, the TGI (K-562 leukemia) was > 10 µM, the TGI (PC-3 prostate) was > 10 µM and the TGI (SK-MEL-5 melanoma) was > 10 µM. The TGI (HCT-116 colon) was > 10 µM.
In the case of COc1ccc(OC)c(C(=O)/C=C/c2cc(O)c(O)cc2F)c1, the TGI (CAKI-1 renal) is reported as 27.6 µM, the TGI (COLO 205 colon) is reported as 31.7 µM and the TGI (HT29 colon) is reported as 29.3 µM. The TGI (A549 NSCLC) was > 82.7 µM, the TGI (UACC-257 melanoma) was 18.3 µM and the TGI (HCT-15 colon) was 13.5 µM. For the same compound, the TGI (K-562 leukemia) was > 27.8 µM, the TGI (PC-3 prostate) was 17.1 µM and the TGI (SK-MEL-5 melanoma) was 12.4 µM. For the same compound, the TGI (HCT-116 colon) was 11.5 µM.
